Values joined by “and” are separate entries in the source; they are usually repeats but may differ in a detail not shown here. Equal entries are not always repeated.
Target: Genome polyprotein (dengue virus type 2, UniProt P29990)
Assay type: functional, Thailand/16681/1984

Genome polyprotein, sequence (P29990 1346-1475 limits assumed): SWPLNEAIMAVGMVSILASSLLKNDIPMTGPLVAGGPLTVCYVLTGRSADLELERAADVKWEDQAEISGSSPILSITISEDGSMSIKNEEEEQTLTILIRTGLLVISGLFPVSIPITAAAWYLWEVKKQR
Genome polyprotein, sequence (P29990 1476-2093 limits assumed): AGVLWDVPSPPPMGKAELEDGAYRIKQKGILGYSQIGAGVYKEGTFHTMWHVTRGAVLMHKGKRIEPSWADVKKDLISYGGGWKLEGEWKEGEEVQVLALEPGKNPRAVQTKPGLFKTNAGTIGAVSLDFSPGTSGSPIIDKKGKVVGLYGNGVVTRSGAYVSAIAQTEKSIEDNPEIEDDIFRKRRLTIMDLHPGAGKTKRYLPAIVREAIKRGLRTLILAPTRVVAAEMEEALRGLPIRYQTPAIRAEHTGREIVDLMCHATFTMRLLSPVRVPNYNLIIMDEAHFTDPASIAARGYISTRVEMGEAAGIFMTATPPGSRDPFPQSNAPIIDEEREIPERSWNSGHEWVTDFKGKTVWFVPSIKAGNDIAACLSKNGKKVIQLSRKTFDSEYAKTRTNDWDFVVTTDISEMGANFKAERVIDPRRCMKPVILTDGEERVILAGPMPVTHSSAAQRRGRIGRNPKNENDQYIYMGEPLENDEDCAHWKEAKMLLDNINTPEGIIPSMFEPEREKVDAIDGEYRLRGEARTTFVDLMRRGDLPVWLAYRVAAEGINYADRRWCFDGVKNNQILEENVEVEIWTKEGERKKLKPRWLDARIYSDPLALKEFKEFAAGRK

| SMILES | IC50 |
| --- | --- |
| NCc1nccc(NC(=O)c2cc(Cl)cc(NC(=O)OCc3ccccc3)c2)n1 | > 99.5 µM |
| CCn1cc(C(=O)Nc2ccccc2)nc(N2CC[C@@H](CO)C2)c1=O | > 99.5 µM |
| NCc1cccc(NC(=O)c2cc(F)cc(NC(=O)OCc3ccccc3)c2F)c1 | > 99.5 µM |
| c1cnc2c(c1)CC[C@@H]2NCc1n[nH]c2ccccc12 | > 99.5 µM |
| C[C@@H](Cc1c[nH]c2ccccc12)N1CCC(c2nc3ccccc3s2)CC1 | > 99.5 µM |
| O=C(Nc1cc(Cl)cc(C(=O)Nc2cccc(C3CCNCC3)c2)c1)OCc1ccccc1 | 20.5 µM and 20.3 µM |
| Cc1nocc1S(=O)(=O)N[C@H](C(=O)Nc1cccc(CN)c1)c1ccc(OCc2ccccc2)cc1 | > 99.5 µM |
| COc1ccc(C)cc1S(=O)(=O)N[C@@H](C(=O)Nc1cccc(CN)c1)c1ccc(OCc2ccccc2)cc1 | 96 µM |
| NCc1cccc(NC(=O)[C@@H](NS(=O)(=O)CCc2ccccc2)c2ccc(OCc3ccccc3)cc2)c1 | 72.8 µM |
| NC1(c2cccc(NC(=O)c3cc(Cl)cc(NC(=O)OCc4ccccc4)c3)c2)CCC1 | > 99.5 µM |
| Cc1ccc(-c2nc(NC(=O)[C@H](NC(=O)OCc3ccccc3)c3ccc(OCc4ccccc4)cc3)sc2CN(C)C)cc1 | > 99.5 µM |
| CN(C)Cc1cc(NC(=O)c2cc(Cl)cc(NC(=O)OCc3ccccc3)c2)sn1 | > 99.5 µM |
| Cn1ccc(-c2n[nH]cc2CN2CCC(c3nc4ccccc4s3)CC2)n1 | > 99.5 µM |
| NCc1cccc(NC(=O)c2cc(Cl)cc(CN)c2)c1 | > 99.5 µM |
| NCc1cccc(NC(=O)[C@H](NC(=O)OCc2ccccc2)C2CCNCC2)c1 | > 99.5 µM |
| NCc1cc(S(=O)(=O)Nc2ccc(Cl)cc2C(=O)O)ccc1Oc1ccccc1 | > 99.5 µM |
| O=C(O)c1cc(Cl)cc(Cl)c1S(=O)(=O)Nc1ccc(Oc2ccccc2Cl)cc1 | > 99.5 µM |
| CCNC(=O)c1cn(CC)c(=O)c(N2CC[C@@H](CO)C2)n1 | > 99.5 µM |
| NCc1cccc(NC(=O)[C@H](NC(=O)OCc2ccccc2)c2cccc(OCC3CCOCC3)c2)c1 | > 99.5 µM |
| O=C(O)c1cc(Cl)ccc1NS(=O)(=O)c1ccc(-c2cscn2)cc1 | 87.5 µM |
| C[C@H]1CN(C(=O)c2cccc3c(CN)cccc23)CCC12CCNCC2 | > 99.5 µM |
| CN1CCc2nc(NC(=O)c3cc(Cl)cc(NC(=O)OCc4ccccc4)c3)sc2C1 | > 99.5 µM |
| COc1cc(NC(=O)OCc2ccccc2)nc(C(=O)Nc2cccc(CN)c2)c1 | > 99.5 µM |
| CCn1nccc1S(=O)(=O)N[C@@H](C(=O)Nc1cccc(CN)c1)c1ccc(OCc2ccccc2)cc1 | > 99.5 µM |
| O=C(O)c1cc(Cl)ccc1S(=O)(=O)N[C@H]1CC[C@@H](Oc2cnccn2)CC1 | > 99.5 µM |

| SMILES | IC50 |
| --- | --- |
| COc1ncccc1S(=O)(=O)N[C@H](C(=O)Nc1cccc(CN)c1)c1ccc(OCc2ccccc2)cc1 | > 99.5 µM |
| Cn1ccc(CS(=O)(=O)N[C@@H](C(=O)Nc2cccc(CN)c2)c2ccc(OCc3ccccc3)cc2)n1 | > 99.5 µM |
| COC(=O)[C@H](NC(=O)OC(C)(C)C)c1ccc(-c2csc(C)c2)cc1 | > 99.5 µM |
| CC1=NN(c2ccc(NS(=O)(=O)c3ccc(Cl)cc3C(=O)O)cn2)C(=O)C1 | > 99.5 µM |
| c1cncc(CC2CN(Cc3n[nH]c4ccccc34)C2)c1 | > 99.5 µM |
| O=C(Nc1cc(Cl)cc(C(=O)Nc2cccc(CC3CCNCC3)c2)c1)OCc1ccccc1 | > 99.5 µM |
| CS(=O)(=O)c1cc(NC(=O)OCc2ccccc2)cc(C(=O)Nc2cccc(CN)c2)c1 | > 99.5 µM |
| COC(=O)C1(S(=O)(=O)N[C@H](C(=O)Nc2cccc(CN)c2)c2ccc(OCc3ccccc3)cc2)CCC1 | > 99.5 µM |
| c1nc(C2CCN(Cc3n[nH]c4c3CCC4)CC2)cs1 | > 99.5 µM |
| CCC1([C@H](NC(=O)OCc2ccccc2)C(=O)NCc2cccc(CN)c2)CCCCC1 | > 99.5 µM |
| NCCc1ccc(NC(=O)c2cc(Cl)cc(NC(=O)OCc3ccccc3)c2)cc1 | 30.9 µM |
| Cc1cc(NS(=O)(=O)c2ccc(Cl)cc2C(=O)O)nn1Cc1ccccc1 | > 99.5 µM |
| CC(C)(C)OC(=O)NCc1cccc(NC(=O)c2cc(N)cc(Cl)c2)c1 | > 99.5 µM |
| Cc1c(NC(=O)OCc2ccccc2)cc(C(=O)Nc2cccc(CN)c2)cc1C(F)(F)F | 91.4 µM |
| O=C(O)c1cc(Cl)ccc1S(=O)(=O)Nc1ccc(-c2n[nH]c3c2CCCC3)cc1 | 73.2 µM |
| CN1CCn2nc(NC(=O)c3cc(Cl)cc(NC(=O)OCc4ccccc4)c3)cc2C1 | > 99.5 µM |
| c1nc(C2CCN(Cc3n[nH]c4c3COCC4)CC2)cs1 | > 99.5 µM |
| COc1ccc([C@@H](CC(=O)Nc2cccc(CN)c2)NC(=O)OCc2ccccc2)cc1Br | 50.1 µM |
| COC(=O)c1n[nH]cc1CN1CCC(c2nc3ccccc3s2)CC1 | > 99.5 µM |
| CC(C)N1CCc2nc(NC(=O)c3cc(Cl)cc(NC(=O)OCc4ccccc4)c3)sc2C1 | > 99.5 µM |
| O=C(O)c1cc(Cl)ccc1S(=O)(=O)Nc1ccc(CN2CCCCC2)cc1 | > 99.5 µM |
| CC(C)c1cc(S(=O)(=O)N[C@H](C(=O)Nc2cccc(CN)c2)c2ccc(OCc3ccccc3)cc2)on1 | > 99.5 µM |
| Cc1nc(CCCNCc2n[nH]c3ccccc23)cs1 | > 99.5 µM |
| NCc1cccc(NC(=O)[C@@H](NS(=O)(=O)c2ccccn2)c2ccc(OCc3ccccc3)cc2)c1 | > 99.5 µM |
| c1ccc2sc(C3CCN(CCc4c[nH]c5ccccc45)CC3)nc2c1 | > 99.5 µM |

| SMILES | IC50 |
| --- | --- |
| NC[C@H]1CC[C@H](NC(=O)c2cc(Cl)cc(NC(=O)OCc3ccccc3)c2)CC1 | > 99.5 µM |
| NCc1cccc(NC(=O)[C@@H]2CCC[C@H](NC(=O)OCc3ccccc3)C2)c1 | > 99.5 µM |
| Cn1nc2c(c1NC(=O)c1cc(Cl)cc(NC(=O)OCc3ccccc3)c1)CNC2 | > 99.5 µM |
| c1ccc2c(CN[C@H]3CCc4ncsc4C3)n[nH]c2c1 | > 99.5 µM |
| NCc1cc(S(=O)(=O)Nc2ccc(Cl)cc2C(=O)NCC(F)(F)F)ccc1Oc1ccccc1 | > 99.5 µM |
| O=C(O)c1cc(Cl)ccc1S(=O)(=O)NC1CCN(S(=O)(=O)c2cccs2)CC1 | > 99.5 µM |
| NCCNC(=O)c1cc(Cl)cc(NC(=O)OCc2ccccc2)c1 | > 99.5 µM |
| NC1CCN(C(=O)c2cc(Cl)cc(NC(=O)OCc3ccccc3)c2)CC1 | > 99.5 µM |
| c1ccc(-c2ncc(CN3CCC(c4nc5ccccc5s4)CC3)[nH]2)cc1 | > 99.5 µM |
| C[C@@H](N)c1ccc(NC(=O)c2cc(Cl)cc(NC(=O)OCc3ccccc3)c2)cc1 | 48.2 µM |
| CC1(C)CNC[C@H](C(=O)Nc2cccc(CN)c2)C1 | > 99.5 µM |
| CCn1cc(C(=O)N2CCN(C)CC2)nc(N2CC[C@@H](CO)C2)c1=O | > 99.5 µM |
| O=C(O)c1cc(Cl)ccc1S(=O)(=O)Nc1ccc(S(=O)(=O)Nc2ccccc2)cc1 | > 99.5 µM |
| c1cc(CN2CCC(c3cscn3)CC2)[nH]n1 | > 99.5 µM |
| O=C(O)c1cc(Cl)ccc1S(=O)(=O)N[C@H]1CC[C@H](Oc2cnccn2)CC1 | > 99.5 µM |
| NCc1cccc(NC(=O)[C@H](NS(=O)(=O)c2cccnc2)c2ccc(OCc3ccccc3)cc2)c1 | > 99.5 µM |
| NCc1cccc(NC(=O)[C@H](NC(=O)OCc2ccccc2)c2cccc(OCc3ncccn3)c2)c1 | > 99.5 µM |
| CCn1c(=O)c(N2CCC[C@H]2c2nncs2)nc2ccccc21 | > 99.5 µM |
| COc1cc(NC(=O)OCc2ccccc2)cc(C(=O)Nc2cccc(CN)c2)c1 | > 99.5 µM |
| Cc1cc(CN(C)C)cc(NC(=O)[C@H](NC(=O)OCc2ccccc2)c2ccc(OCc3ccccc3)cc2)c1 | > 99.5 µM |
| c1ccc2sc(C3CCN(Cc4n[nH]c5c4CCCC5)CC3)nc2c1 | > 99.5 µM |
| NCc1cccc(NC(=O)c2cc(NC(=O)OCc3ccccc3)cc(Cl)c2Cl)c1 | 87.3 µM |
| CCn1nc(-c2ccccc2)cc1NS(=O)(=O)c1ccc(Cl)cc1C(=O)O | > 99.5 µM |
| COc1n[nH]cc1CN1CCC(c2nc3ccccc3s2)CC1 | > 99.5 µM |
| C[C@H]1CNC[C@H](C(=O)Nc2cccc(CN)c2)C1 | > 99.5 µM |

| SMILES | IC50 |
| --- | --- |
| Cc1nn(C)cc1S(=O)(=O)N[C@@H](C(=O)Nc1cccc(CN)c1)c1ccc(OCc2ccccc2)cc1 | > 99.5 µM |
| Cn1ccc(Nc2ccc(S(=O)(=O)Nc3ccc(Cl)cc3C(=O)O)cn2)n1 | > 99.5 µM |
| Cn1ccnc1S(=O)(=O)N[C@@H](C(=O)Nc1cccc(CN)c1)c1ccc(OCc2ccccc2)cc1 | > 99.5 µM |
| CC1(N2CCC(NS(=O)(=O)c3ccc(Cl)cc3C(=O)O)CC2)CCCCC1 | > 99.5 µM |
| NCc1ccc(Oc2ccc(S(=O)(=O)Nc3ccc(Cl)cc3C(=O)NCC(F)(F)F)cc2)cc1 | > 99.5 µM |
| NCc1cccc(NC(=O)[C@@H](NS(=O)(=O)c2ccccc2F)c2ccc(OCc3ccccc3)cc2)c1 | > 99.5 µM |
| c1ccc2c(CN[C@H]3CCc4c([nH]c5ccccc45)C3)n[nH]c2c1 | > 99.5 µM |
| CCS(=O)(=O)N[C@@H](C(=O)Nc1cccc(CN)c1)c1ccc(OCc2ccccc2)cc1 | > 99.5 µM |
| CN(C(=O)c1cc(Cl)cc(NC(=O)OCc2ccccc2)c1)c1ccc(CN)cc1 | > 99.5 µM |
| CC(=O)N1CCC[C@H]1C(=O)N[C@@H](C(=O)Nc1cccc(CN)c1)c1ccc(OCc2ccccc2)cc1 | > 99.5 µM |
| CC(C)N1CCc2nc(NC(=O)[C@H](NC(=O)OCc3ccccc3)c3ccc(OCc4ccccc4)cc3)sc2C1 | > 99.5 µM |
| Cn1nccc1CN1CCC(NS(=O)(=O)c2ccc(Cl)cc2C(=O)O)CC1 | > 99.5 µM |
| N#Cc1ccccc1O[C@H]1CC[C@H](NS(=O)(=O)c2ccc(Cl)cc2C(=O)O)CC1 | > 99.5 µM |
| NCc1cccc(NC(=O)[C@@H]2C[C@H](NC(=O)OCc3ccccc3)[C@H]3C[C@H]32)c1 | > 99.5 µM |
| NCc1cccc(NC(=O)[C@H](NS(=O)(=O)C[C@H]2COCCO2)c2ccc(OCc3ccccc3)cc2)c1 | > 99.5 µM |
| Cc1csc(COc2cccc([C@H](NC(=O)OCc3ccccc3)C(=O)Nc3cccc(CN)c3)c2)n1 | 27.2 µM |
| Cc1[nH]c2ccccc2c1CN1CCC(c2nc3ccccc3s2)CC1 | > 99.5 µM |
| C[C@H]1CC[C@H](CS(=O)(=O)N[C@H](C(=O)Nc2cccc(CN)c2)c2ccc(OCc3ccccc3)cc2)CC1 | 34.2 µM |
| COCc1ccccc1Nc1ccc(S(=O)(=O)Nc2ccc(Cl)cc2C(=O)O)cn1 | > 99.5 µM |
| NCc1cccc(NC(=O)[C@H](NS(=O)(=O)Cc2ccccc2)c2ccc(OCc3ccccc3)cc2)c1 | > 99.5 µM |
| NC[C@H]1CC[C@H](CNC(=O)c2cc(Cl)cc(NC(=O)OCc3ccccc3)c2)CC1 | > 99.5 µM |
| CCn1cc(S(=O)(=O)N[C@@H](C(=O)Nc2cccc(CN)c2)c2ccc(OCc3ccccc3)cc2)cn1 | > 99.5 µM |
| NCc1cccc(NC(=O)[C@H](NC(=O)OCc2ccccc2)c2cccc(OCc3ccccn3)c2)c1 | > 99.5 µM |
| NCc1ccc(Oc2ccc(S(=O)(=O)Nc3ccc(Cl)cc3C(=O)O)cc2)cc1 | > 99.5 µM |

From ChEMBL document CHEMBL5604063, “ASAP - DENV-2 NS2B-NS3 protease fluorescence dose response” (2024)
